# In ChEMBL document CHEMBL1201862, “PubChem BioAssay data set” (2004):
#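 Five compound concentrations were applied to cells in 96-well plates for 48 hours; endpoints were derived by simple linear interpolation of the resulting dose-response curve. At the GI50, growth is halved.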 Activity calls are given as the source filed them. Rule as the data show it: active = GI50 up to about 1.1 µM and inactive = higher.
# Columns and labels:
# Assay in all cases: NCI-60 cell line screen, 48 h
# [1] = test system: 786-0
# [2] = test system: A498
# [3] = test system: A549
# [4] = test system: ACHN
# [5] = test system: BT-549
# [6] = test system: CAKI-1
# [7] = test system: CCRF-CEM
# [8] = test system: COLO 205
# [9] = test system: DU-145
# [10] = test system: EKVX
# [11] = test system: HCC 2998
# [12] = test system: HCT-116
# [13] = test system: HCT-15
# [14] = test system: HL-60
# [15] = test system: HOP-62
# [16] = test system: HT-29
# [17] = test system: Hs-578T
# [18] = test system: IGROV-1
# [19] = test system: K562
# [20] = test system: KM12
# [21] = test system: LOX IMVI
# [22] = test system: M14
# [23] = test system: MCF7
# [24] = test system: MDA-MB-231
# [25] = test system: MDA-MB-435
# [26] = test system: MOLT-4
# [27] = test system: Malme-3M
# [28] = test system: NCI-H226
# [29] = test system: NCI-H23
# [30] = test system: NCI-H460
# [31] = test system: NCI-H522
# [32] = test system: NCI/ADR-RES
# [33] = test system: OVCAR-3
# [34] = test system: OVCAR-4
# [35] = test system: OVCAR-5
# [36] = test system: OVCAR-8
# [37] = test system: PC-3
# [38] = test system: RPMI-8226
# [39] = test system: SF-268
# [40] = test system: SF-295
# [41] = test system: SF-539
# [42] = test system: SK-MEL-28
# [43] = test system: SK-MEL-2
# [44] = test system: SK-MEL-5
# [45] = test system: SK-OV-3
# [46] = test system: SN12C
# [47] = test system: SNB-19
# [48] = test system: SNB-75
# [49] = test system: SR
# [50] = test system: SW-620
# [51] = test system: T47D
# [52] = test system: TK-10
# [53] = test system: U-251
# [54] = test system: UACC-257
# [55] = test system: UACC-62
# [56] = test system: UO-31
smiles,measurement,setting,value
CC(=O)c1cc(CC2Cc3cc4c(cc3C2=O)CCC4)cc2c1CCC2 (stereo unspecified),GI50,[1],80 µM (inactive)
same,GI50,[2],84.7 µM (inactive)
same,GI50,[3],29.8 µM (inactive)
same,GI50,[4],92.7 µM (inactive)
same,GI50,[5],15.4 µM (inactive)
same,GI50,[6],90.2 µM (inactive)
same,GI50,[7],24 µM (inactive)
same,GI50,[8],24.8 µM (inactive)
same,GI50,[9],> 100 µM (inactive)
same,GI50,[10],37.8 µM (inactive)
same,GI50,[11],46 µM (inactive)
same,GI50,[12],26.1 µM (inactive)
same,GI50,[13],44.1 µM
same,GI50,[14],8.65 µM (inactive)
same,GI50,[15],> 100 µM (inactive)
same,GI50,[16],48.2 µM (inactive)
same,GI50,[17],35.5 µM (inactive)
same,GI50,[18],> 100 µM (inactive)
same,GI50,[19],12.5 µM (inactive)
same,GI50,[20],37.2 µM (inactive)
same,GI50,[21],24 µM (inactive)
same,GI50,[22],69.7 µM (inactive)
same,GI50,[23],30.8 µM (inactive)
same,GI50,[24],29.7 µM (inactive)
same,GI50,[25],32.2 µM (inactive)
same,GI50,[26],18.5 µM (inactive)
same,GI50,[27],33 µM (inactive)
same,GI50,[28],44.9 µM (inactive)
same,GI50,[29],15 µM (inactive)
same,GI50,[30],36 µM (inactive)
same,GI50,[31],36.9 µM (inactive)
same,GI50,[32],26.2 µM (inactive)
same,GI50,[33],90.2 µM (inactive)
same,GI50,[34],54.8 µM (inactive)
same,GI50,[35],> 100 µM (inactive)
same,GI50,[36],46.8 µM (inactive)
same,GI50,[37],10.1 µM (inactive)
same,GI50,[38],10.7 µM (inactive)
same,GI50,[39],83.9 µM (inactive)
same,GI50,[40],20.4 µM (inactive)
same,GI50,[41],70.5 µM (inactive)
same,GI50,[42],> 100 µM (inactive)
same,GI50,[43],71.1 µM (inactive)
same,GI50,[44],14 µM (inactive)
same,GI50,[45],62.2 µM (inactive)
same,GI50,[46],47.4 µM (inactive)
same,GI50,[47],78 µM (inactive)
same,GI50,[48],33.3 µM (inactive)
same,GI50,[49],29.9 µM (inactive)
same,GI50,[50],49.5 µM (inactive)
same,GI50,[51],15.1 µM (inactive)
same,GI50,[52],38.5 µM (inactive)
same,GI50,[53],33.7 µM (inactive)
same,GI50,[54],29.9 µM (inactive)
same,GI50,[55],> 100 µM (inactive)
same,GI50,[56],49.5 µM (inactive)
